Reference: patent publication US20220257646A1, “COMPOSITIONS AND METHODS FOR TREATING SKIN CONDITIONS” (The Regents of the University of California, priority 2019, published 2022)

Tested on: P. acnes strains
Experiment: Porphyrin production by P. acnes strains in culture media (iron/cobalt supplemented or depleted)
Format: cell-based, Propionibacterium acnes

Structure (SMILES) | porphyrin production (depletion of cobalt, P. acnes (FIG. 5)) | porphyrin production (acne associated P. acnes strains (FIG. 4)) | chelator effect on porphyrin production (iron added back to iron depleted (chelated) media, P. acnes strains (FIG. 4)) | porphyrin production (iron depletion, acne associated P. acnes strains (FIG. 6)) | porphyrin production (iron supplemented in the media, P. acnes strains (FIG. 1)) | effect of iron depletion on porphyrin production (vitamin B12 supplemented conditions, acne associated P. acnes strains (FIG. 6))
[Co] [cobalt] | significantly promoted the porphyrin production | – | – | – | – | –
[Fe] [iron] | – | reduces porphyrin production | diminishes chelator effect | increases porphyrin production | low porphyrin production | remains
